Source: patent US12617780B2, “Benzothiophene, thienopyridine and thienopyrimidine derivatives for the modulation of sting” (CTXT PTY LTD, priority 2019, dated 2026)

How the values were obtained:
[1] = molecular target: T1, human HAQ isoform of STING (Homo sapiens, UniProt Q86WV6, G230A/H232R/R293Q/R71H); experiment: THP-1 STING Lucia ISG reporter cell line assay; format: cell-based; conditions: 24 h incubation, QUANTI-Luc luminescence; normalised to 40 μM ML RR-S2 CDA; read-out: EC50 THP-1 STING Lucia ISG cells
T1 construct: host or cells: THP-1 STING Lucia ISG cells
T1 sequence (Q86WV6 whole entry R71H/G230A/H232R/R293Q, canonical isoform): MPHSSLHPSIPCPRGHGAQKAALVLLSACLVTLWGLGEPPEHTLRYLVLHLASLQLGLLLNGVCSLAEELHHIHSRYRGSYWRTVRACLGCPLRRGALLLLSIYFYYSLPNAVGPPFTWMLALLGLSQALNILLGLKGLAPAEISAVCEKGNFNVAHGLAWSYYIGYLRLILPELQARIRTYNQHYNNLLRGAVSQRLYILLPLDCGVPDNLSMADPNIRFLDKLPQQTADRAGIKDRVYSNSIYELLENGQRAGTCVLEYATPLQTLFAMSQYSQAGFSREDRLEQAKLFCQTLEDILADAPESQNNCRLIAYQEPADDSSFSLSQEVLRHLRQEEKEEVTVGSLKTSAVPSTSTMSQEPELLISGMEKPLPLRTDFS
Description: (§1) THP-1 STING Lucia ISG cells (InvivoGen #thpl-isg) were cultured in RPMI-1640 containing 2 mM L-glutamine, 25 mM HEPES, 100 μg/mL Normocin (InvivoGen) and 10% heat-inactivated FBS. Cells were seeded at a density of 7×10^5 cells/mL, maintained at 37° C./5% CO2, and passaged every 3-4 days. Selection pressure was maintained by the addition of 100 μg/mL Zeocin every second passage.
(§2) Assay conditions: cells were harvested and resuspended at a concentration of 5×10^5 cells/mL in fresh growth media. Of this cell preparation 20 μL per well was dispensed into 384 well cell culture plates (Greiner, #781098X) and incubated at 37° C./5% CO2 for 2 hours.
(§3) Concentration Response Curves (commonly 11 doses) were prepared by 2.5 fold serial dilution starting from 10 mM compound stock solution in DMSO. Compound dilutions were transferred into the cell culture plates using a pintool (0.1 μL transfer), control wells were matched for DMSO. Positive control wells received ML RR-S2 CDA (Med Chem Express HY12885B) in 5 μL of media to a final concentration of 40 μM. All other wells received additional 5 μL of media only to equalise volume. The plates were incubated for 24 h at 37° C./5% CO2.
(§4) For the detection step, QUANTI-Luc (InvivoGen #rep-qlc1) was prepared according to manufacturer's instruction and 10 μL were added per well to the culture plates. Plates were shaken for ten seconds on an orbital shaker and left in the dark at room temperature for two minutes, before luminescence was read on a Perkin Elmer Envision plate reader.
(§5) Data analysis: Luminescence raw data was normalised % activity relative to the signal of the positive control wells and negative control wells which were not treated with compound. The following formula was used to calculate normalised % activity from raw signals: % activity=(sample−negative)/(positive−negative)
(§6) The THP-1 STING Lucia ISG cell EC50 provides an assessment of activity at the human HAQ isoform of STING. For assessing compound activity against the WT human STING isoform, an equivalent method was conducted where the cells used were THP-1-Dual KI-hSTING-R232 (InvivoGen #thpd-r232).

WT human STING isoform = molecular target: T2, WT human STING isoform (Homo sapiens, UniProt Q86WV6, H232R); experiment: THP-1-Dual KI-hSTING-R232 reporter cell line assay; format: cell-based; conditions: 24 h incubation, QUANTI-Luc luminescence; normalised to 40 μM ML RR-S2 CDA; read-out: EC50 THP-1 Dual KI-hSTING-R232 cells
T2 construct: host or cells: THP-1-Dual KI-hSTING-R232
T2 sequence (Q86WV6 whole entry H232R, canonical isoform): as the sequence (Q86WV6 whole entry R71H/G230A/H232R/R293Q, canonical isoform) above, with H71R, A230G, Q293R counted along it
Description: as §1, §2, §3, §4, §5, §6

huSTING (HAQ) = molecular target: T3, huSTING (HAQ) (Homo sapiens, UniProt Q86WV6, G230A/H232R/R293Q); experiment: Surface Plasmon Resonance (SPR) STING (HAQ); format: binding; conditions: biotinylated STING on streptavidin chip, 8° C.; 50% occupancy as surrogate KD
T3 construct: made in house; host or cells: E. coli BL21 DE3
T3 sequence (Q86WV6 with tags, fused parts or gaps G230A/H232R/R293Q): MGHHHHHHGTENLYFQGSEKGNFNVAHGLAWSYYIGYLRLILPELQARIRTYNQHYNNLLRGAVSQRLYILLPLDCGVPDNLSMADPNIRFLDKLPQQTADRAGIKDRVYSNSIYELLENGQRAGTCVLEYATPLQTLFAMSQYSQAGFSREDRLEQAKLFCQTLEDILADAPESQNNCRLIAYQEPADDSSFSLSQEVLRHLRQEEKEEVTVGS
Source text: (§7) To determine binding affinities (50% occupancy as a surrogate Ko for the two binding events occurring) from dose-response experiments, binding responses at equilibrium were fit to a Hill equation, where the Hill coefficient was floated (52). For single-cycle kinetic experiments, sensorgrams were fit to a two-step kinetic model in which two analyte molecules bind sequentially (Biacore T200 or S200 Evaluation Software).

huSTING (WT) = molecular target: T4, huSTING (WT) (Homo sapiens, UniProt Q86WV6, H232R); experiment: Surface Plasmon Resonance (SPR) STING (WT); format: binding; conditions: biotinylated STING on streptavidin chip, 8° C.; 50% occupancy as surrogate KD
T4 construct: made in house; host or cells: E. coli BL21 DE3
T4 sequence (Q86WV6 with tags, fused parts or gaps H232R): as the sequence (Q86WV6 with tags, fused parts or gaps G230A/H232R/R293Q) above, with A100G, Q163R counted along it
Source text: as §7

For `CCOC(=O)c1sc2cccc(Cl)c2c1-c1nc2cc(C(N)=O)ccc2n1C` (single isomer, unassigned) [Example 5.1, Ethyl 3-(5-Carbamoyl-1-methyl-1H-benzo[d]imidazol-2-yl)-4-chlorobenzo[b]thiophene-2-carboxylate], the EC50 [1] was 8270 nM and the EC50 (WT human STING isoform) was 20100 nM.

Molecule `CCOC(=O)c1sc2cccc(Cl)c2c1-c1nc2ccc(C(N)=O)cc2n1C` (single isomer, unassigned) [Example 5.2, Ethyl 3-(6-carbamoyl-1-methyl-1H-benzo[d]imidazol-2-yl)-4-chlorobenzo[b]thiophene-2-carboxylate] has an EC50 [1] of 2510 nM and an EC50 (WT human STING isoform) of 29400 nM.

`CCOC(=O)c1sc2cccc(Cl)c2c1-c1nc2cc(C(N)=O)ccc2[nH]1` [Example 1, Ethyl 3-(5-carbamoyl-1H-benzo[d]imidazol-2-yl)-4-chlorobenzo[b]thiophene-2-carboxylate] showed an EC50 [1] of 574 nM and an EC50 (WT human STING isoform) of 7070 nM.

Work on `NC(=O)c1ccc2[nH]c(-c3c(C(=O)O)sc4cccc(Cl)c34)nc2c1` [Example 2, 3-(5-Carbamoyl-1H-benzo[d]imidazol-2-yl)-4-chlorobenzo[b]thiophene-2-carboxylic acid] yielded an EC50 [1] of 23900 nM, a Kd (huSTING (HAQ)) of 42000 nM and an EC50 (WT human STING isoform) of over 40000 nM.

Molecule `CCOC(=O)c1sc2cccc(Cl)c2c1-c1nc2cc(C(N)=O)cc(F)c2[nH]1` [Example 3, Ethyl 3-(5-carbamoyl-7-fluoro-1H-benzo[d]imidazol-2-yl)-4-chlorobenzo[b]thiophene-2-carboxylate] has an EC50 [1] of 455 nM and an EC50 (WT human STING isoform) of 2580 nM.

`CCOC(=O)c1sc2cccc(Cl)c2c1-c1nc2ccc(C(N)=O)c(OC)c2[nH]1` [Example 4, Ethyl 3-(6-carbamoyl-7-methoxy-1H-benzo[d]imidazol-2-yl)-4-chlorobenzo[b]thiophene-2-carboxylate] gave an EC50 [1] of 4.1 nM and an EC50 (WT human STING isoform) of 57 nM.

`CCOC(=O)c1sc2c(F)ccc(Br)c2c1-c1nc2cc(C(N)=O)ccc2[nH]1` [Example 7, Ethyl 4-bromo-3-(5-carbamoyl-1H-benzo[d]imidazol-2-yl)-7-fluorobenzo[b]thiophene-2-carboxylate] gave an EC50 [1] of 441 nM and an EC50 (WT human STING isoform) of 2120 nM.

For `NC(=O)c1ccc2[nH]c(-c3c(C(=O)O)sc4c(F)ccc(Br)c34)nc2c1` [Example 8, 4-Bromo-3-(5-carbamoyl-1H-benzo[d]imidazol-2-yl)-7-fluorobenzo[b]thiophene-2-carboxylic acid], the Kd (huSTING (WT)) was 91000 nM, the EC50 [1] was 18300 nM and the Kd (huSTING (HAQ)) was 6700 nM. For the same molecule, the EC50 (WT human STING isoform) was 16400 nM.

Work on `COc1c(C(N)=O)ccc2nc(-c3c(C(=O)O)sc4cccc(Cl)c34)[nH]c12` [Example 9, 3-(6-Carbamoyl-7-methoxy-1H-benzo[d]imidazol-2-yl)-4-chlorobenzo[b]thiophene-2-carboxylic acid] yielded a Kd (huSTING (WT)) of 51000 nM, an EC50 [1] of 2460 nM and a Kd (huSTING (HAQ)) of 3100 nM. It also gave an EC50 (WT human STING isoform) of 4670 nM.

`CCOC(=O)c1sc2c(F)ccc(Br)c2c1-c1nc2ccc(C(N)=O)c(OC)c2[nH]1` [Example 10, Ethyl 4-bromo-3-(6-carbamoyl-7-methoxy-1H-benzo[d]imidazol-2-yl)-7-fluorobenzo[b]thiophene-2-carboxylate] showed an EC50 [1] of 43 nM and an EC50 (WT human STING isoform) of 121 nM.

`COc1c(C(N)=O)ccc2nc(-c3c(C(=O)O)sc4c(F)ccc(Br)c34)[nH]c12` [Example 11, 4-Bromo-3-(6-carbamoyl-7-methoxy-1H-benzo[d]imidazol-2-yl)-7-fluorobenzo[b]thiophene-2-carboxylic acid] was tested, and the Kd (huSTING (WT)) was 1450 nM, the EC50 [1] was 651 nM and the Kd (huSTING (HAQ)) was 140 nM. It also gave an EC50 (WT human STING isoform) of 1040 nM.

In the case of `CCOC(=O)c1sc2cccc(Cl)c2c1-c1nc2c(Cl)c(C(N)=O)ccc2[nH]1` [Example 12, Ethyl 3-(5-carbamoyl-4-chloro-1H-benzo[d]imidazol-2-yl)-4-chlorobenzo[b]thiophene-2-carboxylate], the EC50 [1] is reported as 12 nM and the EC50 (WT human STING isoform) is reported as 24 nM.

For `NC(=O)c1ccc2[nH]c(-c3c(C(=O)O)sc4cccc(Cl)c34)nc2c1Cl` [Example 13, 3-(5-Carbamoyl-4-chloro-1H-benzo[d]imidazol-2-yl)-4-chlorobenzo[b]thiophene-2-carboxylic acid], the EC50 [1] was 6100 nM, the Kd (huSTING (HAQ)) was 33300 nM and the EC50 (WT human STING isoform) was 4380 nM.

Work on `CCOC(=O)c1sc2c(F)ccc(Br)c2c1-c1nc2ccc(C(N)=O)c(OCC)c2[nH]1` [Example 14, Ethyl 4-bromo-3-(6-carbamoyl-7-ethoxy-1H-benzo[d]imidazol-2-yl)-7-fluorobenzo[b]thiophene-2-carboxylate] yielded an EC50 [1] of 576 nM and an EC50 (WT human STING isoform) of 2720 nM.

`CCOc1c(C(N)=O)ccc2nc(-c3c(C(=O)O)sc4c(F)ccc(Br)c34)[nH]c12` [Example 15, 4-Bromo-3-(6-carbamoyl-7-ethoxy-1H-benzo[d]imidazol-2-yl)-7-fluorobenzo[b]thiophene-2-carboxylic acid] was tested, and the EC50 [1] was over 40000 nM, the Kd (huSTING (HAQ)) was 55700 nM and the EC50 (WT human STING isoform) was over 40000 nM.

In the case of `CCOC(=O)c1sc2c(Br)cnc(OC)c2c1-c1nc2c(OC)c(C(N)=O)ccc2[nH]1` [Example 16, Ethyl 7-bromo-3-(5-carbamoyl-4-methoxy-1H-benzo[d]imidazol-2-yl)-4-methoxythieno[3,2-c]pyridine-2-carboxylate], the EC50 [1] is reported as 1550 nM and the EC50 (WT human STING isoform) is reported as 2730 nM.

`COc1c(C(N)=O)ccc2[nH]c(-c3c(C(=O)O)sc4c(Br)cnc(OC)c34)nc12` [Example 17, 7-Bromo-3-(5-carbamoyl-4-methoxy-1H-benzo[d]imidazol-2-yl)-4-methoxythieno[3,2-c]pyridine-2-carboxylic acid] showed a Kd (huSTING (WT)) of 19100 nM, an EC50 [1] of over 40000 nM and a Kd (huSTING (HAQ)) of 3600 nM. It also gave an EC50 (WT human STING isoform) of over 40000 nM.

Work on `CCOC(=O)c1sc2c(F)ccc(Cl)c2c1-c1nc2c(OC)c(C(N)=O)cc(Cl)c2[nH]1` [Example 18, Ethyl 3-(5-carbamoyl-7-chloro-4-methoxy-1H-benzo[d]imidazol-2-yl)-4-chloro-7-fluorobenzo[b]thiophene-2-carboxylate] yielded an EC50 [1] of 1830 nM and an EC50 (WT human STING isoform) of 2270 nM.

For `CCOC(=O)c1sc2cccc(OC)c2c1-c1nc2c(OC)c(C(N)=O)ccc2[nH]1` [Example 19, Ethyl 3-(5-carbamoyl-4-methoxy-1H-benzo[d]imidazol-2-yl)-4-methoxybenzo[b]thiophene-2-carboxylate], the EC50 [1] was 28 nM and the EC50 (WT human STING isoform) was 82 nM.

Work on `CCOC(=O)c1sc2c(F)ccc(Cl)c2c1-c1nc2c(OC)c(C(N)=O)ccc2[nH]1` [Example 20, Ethyl 3-(5-carbamoyl-4-methoxy-1H-benzo[d]imidazol-2-yl)-4-chloro-7-fluorobenzo[b]thiophene-2-carboxylate] yielded an EC50 [1] of 122 nM and an EC50 (WT human STING isoform) of 131 nM.

`COc1c(C(N)=O)cc(F)c2[nH]c(-c3c(C(=O)O)sc4c(F)ccc(Cl)c34)nc12` [Example 21, 3-(5-Carbamoyl-7-fluoro-4-methoxy-1H-benzo[d]imidazol-2-yl)-4-chloro-7-fluorobenzo[b]thiophene-2-carboxylic acid] showed an EC50 [1] of 3590 nM and an EC50 (WT human STING isoform) of 4930 nM.

For `COc1c(C(N)=O)ccc2[nH]c(-c3c(C(=O)O)sc4cccc(OC)c34)nc12` [Example 22, 3-(5-Carbamoyl-4-methoxy-1H-benzo[d]imidazol-2-yl)-4-methoxybenzo[b]thiophene-2-carboxylic acid], the EC50 [1] was 9360 nM and the EC50 (WT human STING isoform) was 9040 nM.

`CCOC(=O)c1sc2c(F)ccc(Cl)c2c1-c1nc2c(OC)c(C(N)=O)cc(F)c2[nH]1` [Example 23, Ethyl 3-(5-carbamoyl-7-fluoro-4-methoxy-1H-benzo[d]imidazol-2-yl)-4-chloro-7-fluorobenzo[b]thiophene-2-carboxylate] was tested, and the EC50 [1] was 115 nM and the EC50 (WT human STING isoform) was 119 nM.
